Measured values reported in patent US20110166066A1, “CATESTATIN (CST) AND ITS VARIANTS FOR TREATMENT OF CARDIOVASCULAR AND METABOLIC DISORDERS” (priority 2008, published 2011).
Entries after “also recorded” stand apart in the source; their conditions may differ. Structures can show the parent of a compound that is named as a salt. Where two headings read alike, the source gives them in different places. No end group written: not given here.

B1: vasostatin: another peptide derived from CgA, inhibited angiogenesis induced by VEGF (peptide, UniProt P10645 19-94, looked up)
Vasostatin-1: LPVNSPMNKGDTEVMKCIVEVISDTLSKPSPMPVSQECFETLRGDERILSILRHQNLLKELQDLALQGAKERAHQQ
modifications: Vasostatin-1

What was measured:
[1] = test system: Langendorff perfused rat heart; experiment: Isoproterenol stimulated Langendorff heart preparations; settings: for Coronary pressure (ISO alone or ISO + peptide) / Inotropism (ISO alone or ISO + peptide) / Lusitropism (ISO alone or ISO + peptide): Table 3, ISO 5 nM; for ISO stimulatory effect on LVP: measured at 5 min
Method: Isoproterenol stimulated preparations—Cardiac preparations were stabilized for 20 min with KHs and then perfused with 5 nM ISO for 10 min. ISO was washed-out with KHs. After returning to control conditions, each heart was perfused with KHs containing a single concentration of WT-Cts […] or G364S-Cts (200 nM) with 5 nM ISO for a further 10 min.
To further describe the antagonistic action of either WT-Cts (33 nM), P370L-Cts (110 nM) or G364S-Cts (200 nM) against ISO-dependent stimulation, dose-response curves were generated by perfusing the heart preparations with KHs enriched with increasing concentrations of ISO (0.1 nM to 1 μM) alone. These curves were then compared to those obtained by exposing other cardiac preparations to the same perfusion medium containing increasing concentrations of ISO (0.1 nM to 1 μM) plus a single concentration of either WT-Cts (33 nM) or P370L-Cts (110 nM) or G364S-Cts (200 nM).
Statistics—Data are expressed as the mean±SEM. Curve fitting was accomplished in the program Kaleidagraph (Synergy Software, Reading, Pa.). Peptide EC50 and IC50 values were interpolated as the concentration that achieved 50% stimulation and inhibition, respectively. For analysis of phosphorylated proteins, levels were quantified using Bio-Rad QuantifyOne and volumes of phosphorylated proteins were divided by the levels of non-phosphorylated proteins to calculate fold activation. Stimulation of protein activity was expressed as fold increase over vehicle-treated control. The means and S.E.M. were calculated for each treatment. Multiple comparisons were made using either one-way ANOVA followed by Bonferroni's post-hoc test or two-way ANOVA. Statistical significance was concluded at p<0.05. Statistics were computed with the program InStat (GraphPad Software, Inc., San Diego, Calif.).
To characterize the inhibitory action of either WT-CST (11, 33 or 110 nM), G364S-CST (200 nM) or P370L-CST (110 nM) toward ISO-dependent stimulation of cardiac function, heart preparations were perfused with KHs containing increasing concentrations of ISO (0.1 nM to 1 μM) either alone or in combination with one of the three CST variants.

[2] = test system: Langendorff perfused rat heart; experiment: as above; settings: P370L-CST 165 nM, G364S-CST 200 nM; for ISO-induced stimulation of LVP (concentration-response): ISO 0.1 nM to 1 μM, WT-CST 33 and 110 nM
[3] = test system: WT and Chga knockout (KO) mice; experiment: Response to PE or SNP and baroreflex sensitivity in unconscious mice; assay type: in vivo; settings: for Increase in SBP: 0.005 μg/g bw iv
Method: Unconscious mice. Surgical procedures for hemodynamic measurements: Hemodynamic evaluation in both WT and KO mice was performed under general anesthesia [ketamine (100 mg/kg) and xylazine (2.5 mg/kg)] while connected to a ventilator. LV pressure was monitored by Millar micromanometer catheter of size 1.4 French (0.46 mm; Millar Instruments, Houston, Tex.); it was inserted into the LV where phasic and mean pressure was continuously monitored (Gould, Cleveland, Ohio). A venous catheter (MicroRenathane tube MRE-033; Braintree Laboratories, Braintree, Mass.) is implanted on right femoral vein for injection of peptide and other reagents. All physiologic signals were acquired by WINDAQ (Dataq Instruments, Akron, Ohio) and analyzed by BP-Analysis software (developed for own laboratory).
Assessment of baroreflex sensitivity (BRS): BRS (in milliseconds per mmHg) was assessed by both high-pressure [phenylephrine (PE) bolus] and low-pressure [sodium nitroprusside (SNP) bolus] stimuli in unconscious mice. Although conscious animals provide optimal physiological data, a host of undesirable signals are triggered by physical activities, and sleep cycle alterations in behavioral state. Therefore, we have chosen to conduct the experiments in unconscious mice to avoid some of the pitfalls encountered in awake animals. The absolute changes of HR in response to changes in SBP induced by PE or SNP were subjected to linear regression analysis to determine BRS. To test the effect of CST on BRS in KO mice, CST was injected (40 μg/g bw iv) 30 min before the injection of PE or SNP through the catheter implanted into the femoral vein.
BRS to high-pressure stimulus. High pressure BRS was evaluated by recording diminution of HR in response to PE-induced hypertension. Changes in SBP and HR were recorded continuously for 0.5 min after a bolus injection of PE (0.005 μg/g bw iv). This dose was selected from a preliminary dose-response study (0.001-0.05 μg/g bw iv).
BRS to low-pressure stimulus. This was evaluated by recording increments in HR in response to SNP-induced fall in BP. Changes in SBP and HR were recorded continuously for 0.5 min after a bolus injection of SNP (0.05 μg/g bw iv). This dose was selected from a preliminary dose-response study (0.01-0.1 μg/g bw iv).

[4] = test system: Langendorff perfused rat heart; experiment: Langendorff perfused rat heart, basal conditions: concentration-response of catestatin peptides; settings: for Activity rank order / Inotropism / Lusitropism: basal conditions, Table 2
Text: Animals-Male Wistar rats (Morini, Bologna, Italy S.P.A.) weighing 180-250 g were housed (three per cage) in a ventilated cage rack system under standard conditions. Animals had food and water access ad libitum. The investigation conforms to the Guide for the Care and Use of Laboratory Animals, according to NIH Publication No. 85-23, revised 1996. Isolated heart preparation-Rats were anesthetized with ethyl carbamate (2 g/Kg rat, i.p.), the hearts rapidly excised and then transferred in ice-cold buffered Krebs-Henseleit solution (KHs). As previously described (23), the aorta was immediately cannulated with a glass cannula and connected to Langendorff apparatus to start perfusion at constant flow-rate (12 ml/min). Briefly, the apex of the left ventricle (LV) was pierced to avoid fluid accumulation. A water-filled latex balloon, connected to a pressure transducer ([…], Inc. USA), was inserted through mitral valve into the LV allowing isovolumic contractions and continuous mechanical parameters recording. Another pressure transducer located just above the aorta recorded coronary pressure (CP). […] Hemodynamic parameters were assessed using a PowerLab data acquisition system and analysed using Chart software (both purchased by ADInstruments, Basile, Italy). […] Curve fitting was accomplished in the program Kaleidagraph (Synergy Software, Reading, Pa.). Peptide EC50 and IC50 values were interpolated as the concentration that achieved 50% stimulation and inhibition, respectively. For analysis of phosphorylated proteins, levels were quantified using Bio-Rad QuantifyOne and volumes of phosphorylated proteins were divided by the levels of non-phosphorylated proteins to calculate fold activation. Stimulation of protein activity was expressed as fold increase over vehicle-treated control. The means and S.E.M. were calculated for each treatment. Multiple comparisons were made using either one-way ANOVA followed by Bonferroni's post-hoc test or two-way ANOVA. Statistical significance was concluded at p<0.05. Statistics were computed with the program InStat (GraphPad Software, Inc., San Diego, Calif.).

[5] = test system: Langendorff perfused rat heart; experiment: ET-1 stimulated Langendorff heart preparations; settings: for ET-1 induced positive inotropism: ET-1 1 nM, WT-CST 33 nM, P370L-CST 110 nM, G364S-CST 200 nM
Method: ET-1 stimulated preparations—Hearts, stabilized for 20 min with KHs, were perfused for 10 min with ET-1 (1 nM) and then washed-out with KHs. After returning to control conditions, each heart was perfused with KHs containing a single concentration of either WT-Cts (33 nM), P370L-Cts (110 nM) or G364S-Cts (200 nM) plus 1 nM ET-1 for a further 10 min.

[6] = test system: sympathochromaffin cells; settings: in vitro; cited from earlier work
[7] = test system: ECs; settings: cited from earlier work

Row | Molecule | Coronary pressure (ISO alone or ISO + peptide) [1] | Inotropism (ISO alone or ISO + peptide) [1] | Lusitropism (ISO alone or ISO + peptide) [1] | Activity rank order [4] | Inotropism [4] | Lusitropism [4] | ISO induced coronary dilation ([1]; ISO 5 nM) | ISO-induced positive lusitropism ([1]; ISO 5 nM) | Rank order of potency against ISO ([1]; ISO 5 nM) | ISO stimulatory effect on LVP ([1]; ISO 5 nM) | ET-1 induced positive inotropism [5] | ISO-induced stimulation of LVP (concentration-response) [2] | Rank order of potency, inhibition of catecholamine secretion [6] | further results
1 | CC(C)NCC(O)c1ccc(O)c(O)c1 (centres unmarked) [ISO, Isoproterenol hydrochloride, reference compound] | Vasodilation | Positive | Positive | – | – | – | – | – | – | – | – | – | – | Effect of ISO alone on LVP ([1]; 5 nM to 1 μM): increased LVP significantly; EC50 ([1]; Rattus norvegicus, ISO alone, read-out: EC50 of ISO-mediated LVP stimulation (converted)): 2.14 nM; EC50 ([2]; Rattus norvegicus, Table 3, values match WT-CST 110 nM, read-out: EC50 (ISO on LVP, alone or + peptide) (converted)): 2.14 nM
2 | CNC[C@H](O)c1cccc(O)c1 [PE, phenylephrine] | – | – | – | – | – | – | – | – | – | – | – | – | – | PE-induced bradycardia ([3]; KO mice): completely abolished; Increase in SBP ([3]; KO mice): 45.6 mmHg; Decrease in HR ([3]; WT mice, 0.005 μg/g bw): 26 bpm; Increase in SBP ([3]; WT mice): 34.1 mmHg
3 | G364S-CST: SEQ ID NO. 4 SSMKLSFRARAYSFRGPGPQL, naturally occurring Gly364Ser variant of catestatin (listed as Homo sapiens) | Abolished | Abolished | Abolished | Activity: WT-CST > P370L-CST > G364S-CST | No effect | No effect | blocked | blocked | Order of potency: WT-CST > G364S-CST > P370L-CST | abolished | blocked | significantly inhibited | Pro370Leu>wild-type (WT)>Gly364Ser>Arg374Gln; also recorded: Pro370Leu>wildtype (WT)>Gly364Ser>Arg374Gln | Other parameters tested (HR, LVP, +(LVdP/dT)max, −(LVdP/dT)max) ([4]; 11 to 200 nM): unaffected; Effect on RPP ([4]; even at 33 nM): significant increase; Block of ISO-dependent +(LVdP/dT)max ([1]; ISO 5 nM): > 100%; ISO-dependent decrease of T/−t ([1]; ISO 5 nM): blocked
4 | P370L-CST: SEQ ID NO. 3 SSMKLSFRARAYGFRGPGLQL, naturally occurring Pro370Leu variant of catestatin (listed as Homo sapiens) | No effect | Abolished | Abolished | Activity: WT-CST > P370L-CST > G364S-CST | Negative | No effect | remaining unchanged | failed to modulate | Order of potency: WT-CST > G364S-CST > P370L-CST | abolished | blocked | significantly inhibited | Pro370Leu>wild-type (WT)>Gly364Ser>Arg374Gln; also recorded: Pro370Leu>wildtype (WT)>Gly364Ser>Arg374Gln | Concentration of maximum decrease in +(LVdP/dT)max [4]: 200 nM; Concentration of maximum decrease in LVP and RPP [4]: 200 nM; Effect on −(LVdP/dT)max [4]: marked decrease; Effect on CP (coronary pressure) ([4]; basal): not accompanied by changes; Effect on HR ([4]; basal, WT-Cts significant at 33 nM): not accompanied by changes; Inotropic effect (LVP, RPP) ([4]; from 110 to 200 nM): negative inotropism; Effect on +(LVdP/dT)max ([4]; starting from 110 nM): marked decrease
5 | endothelin-1 (CSCSSLMDKECVYFCHLDIIW; ends and bridges not checked; cysteine pairing not given here; UniProt P05305 53-73, looked up) [ET-1, endothelin-1, purchased from Sigma, reference compound] | – | – | – | – | – | – | – | – | – | – | – | – | – | Effect on LVP and +(LVdP/dT)max ([5]; 1 nM): increased; Effect on coronary constriction ([5]; ET-1 alone 1 and 10 nM): significant increase in coronary constriction
6 | B1 | – | – | – | – | – | – | – | – | – | – | – | – | – | Concentration at which effects were found [7]: 330 nM
